Results reported in PubChem BioAssay AID493102 (Broad Institute, 2011).

These compounds were tested on SK-MEL-5 TRPM1-promoter luciferase reporter, 24 h (assay: TRPM1 promoter luciferase signal decrease, dose response, MITF inhibitor project, cell-based, SK-MEL-5, cherry-picked, set 4 (AID 493102);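 also: actives lower the luciferase signal so the potency reflects inhibition of reporter expression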).

| SMILES | AC50 [µM] |
| --- | --- |
| O=C(O)c1cccc(N/N=C/c2ccc(OC(F)(F)F)cc2)c1 | 5.95 |
| COc1ccccc1-c1cc(C(F)(F)F)nc(S(C)(=O)=O)n1 | 6.81 |
| Cc1ccccc1OCc1n(CC(=O)OC2CC(C)CCC2C(C)C)c2ccccc2[n+]1C (configuration not stated) | 7.52 |
| CC(=O)N(C1CC(C)C(C#N)(C#N)C1(C#N)C#N)N(C)C (configuration not stated) | 9.24 |
| C/C(=N\NC(=O)C1COc2ccccc2O1)c1ccccn1 (configuration not stated) | 4.49 |
| CCNC1=C(Cl)C(=O)c2ccccc2C1=O | 3.84 |
| CC(C)N1C/C(=C/c2cccnc2)C(=O)/C(=C/c2cccnc2)C1 | 14.2 |
| Cc1ccc(C(=O)c2no[n+]([O-])c2C(=O)c2ccc(C)cc2)cc1 | 16.7 |
| CCCCn1c(=O)[nH]c(=O)c2c1nc(Cn1ncc(Cl)c(Cl)c1=O)n2CCC | 8.12 |
| CC1CCC(C(C)C)C(OC(=O)Cn2c(-c3ccc(F)cc3)[n+](C)c3ccccc32)C1 (configuration not stated) | 5.57 |
| CC1CCC(C(C)C)C(OC(=O)Cn2c(-c3ccc(Br)cc3)[n+](C)c3ccccc32)C1 (configuration not stated) | 7.12 |
| CCCN1CCC(NCc2cn(C)nc2-c2ccc(Oc3ccccc3)cc2)CC1 | 8.35 |
| O=C1NC(=O)N(Cc2ccc(F)cc2)C(=O)/C1=C\C=C\c1ccco1 | 6.63 |
| CS(=O)(=O)N1CCN(c2ccc(NC(=O)c3ccc([N+](=O)[O-])o3)cc2)CC1 | 4.92 |
| Cc1ccc(-c2nc(C(=O)NCCCN(C)C)cc3c2[nH]c2ccccc23)cc1 | 11.2 |
| O=c1c(Cl)c(Cl)cnn1-c1ccccc1 | 9.54 |
| Cc1cccc(NC(=O)c2ccc([N+](=O)[O-])o2)c1C | 14.8 |
| CN(C)S(=O)(=O)c1ccc(-c2csc(N/N=C/c3ccco3)n2)cc1 | 3.9 |
| CCN1CCN(C2=C(NS(=O)(=O)c3ccc(C)cc3)C(=O)c3ccccc3C2=O)CC1 | 4.18 |
| COc1ccccc1NS(=O)(=O)c1cccc(C(=O)N/N=C/c2ccc([N+](=O)[O-])o2)c1 | 4.3 |
| Cc1c(C#N)c(O)n(CCO)c(=O)c1N=Nc1ccc2c(c1)COC2=O | 9.69 |
| COc1ccc2oc(C(=O)Nc3ccc(S(=O)(=O)N(C)C4CCN(C)CC4)cc3)c(C)c2c1 | 13 |
| CC(C)(C)c1ccc(Cn2c(=N)n(CC(O)c3ccco3)c3ccccc32)cc1 (configuration not stated) | 11.8 |

| SMILES | AC50 [µM] |
| --- | --- |
| COc1cc(SC)ccc1C(=O)Nc1nc(C)cs1 | 4.81 |
| Nc1nnnn1/N=C/C(Br)=C/c1ccccc1 | 5.44 |
| Cc1ccc(/C=N/Nc2ccc(C(=O)O)cc2)s1 | 3.3 |
| Cc1ccc(C(=O)C[n+]2cc(-c3ccc(C)cc3)n3c2CCCCC3)cc1 | 3.63 |
| Cc1c(NC(=O)C(C)OC(=O)c2ccc([N+](=O)[O-])s2)c(=O)n(-c2ccccc2)n1C (configuration not stated) | 34.1 |
| CCN1CCN(C2=C(NS(=O)(=O)c3ccc(Br)cc3)C(=O)c3ccccc3C2=O)CC1 | 5.71 |
| O=C(Nc1nc2cc3c(cc2s1)OCO3)C1=COCCO1 | 3.77 |
| Cn1c(=O)c([N+](=O)[O-])c(-n2ccnc2)c2ccccc21 | 6.6 |
| O=C(N/N=C/c1ccc([N+](=O)[O-])o1)c1sc2ccccc2c1Cl | 4.61 |
| Cc1cc(C)c(C#N)c(SCc2nnc(-c3ccccc3)o2)n1 | 0.024 |
| O=C(O)c1cccc(COc2ccccc2Cl)c1 | 0.756 |
| CS(=O)(=O)c1nc(-c2ccc(F)cc2)cc(C(F)(F)F)n1 | 7.2 |
| Cc1ccc(C)c(S(=O)(=O)N2CCN(Cc3ccc(O)c4ncccc34)CC2)c1 | 4.44 |
| COc1cc(SC)ccc1C(=O)Nc1ccc(Br)cn1 | 7.36 |
| O=C(CCl)N1c2ccccc2CCc2ccccc21 | 5.54 |
| COc1ccc(C(NC(C)=O)c2ccc3cccnc3c2O)c(OC)c1 (configuration not stated) | 5.15 |
| COc1cccc(C(=O)Oc2c(CN3CCOCC3)cc(Cl)c3cccnc23)c1 | 9.89 |
| Cn1cc([N+](=O)[O-])c(C(=O)Nc2nc(-c3ccc(Cl)cc3)cs2)n1 | 10.5 |
| O=C(CCl)Nc1ccc(Sc2ccc(NC(=O)CCl)cc2)cc1 | 5.98 |
| CCCNC(=O)COC(=O)c1ccccc1C(=O)c1ccc(Cl)c([N+](=O)[O-])c1 | 8.34 |
| COC(=O)CCS(=O)(=O)c1nc(-c2ccccc2)cc(C(F)(F)F)n1 | 5.85 |
| Cc1ccccc1NC(=O)Cc1nc(COC(=O)c2ccc(S(C)(=O)=O)c([N+](=O)[O-])c2)cs1 | 12.8 |
| CC1C/C(=C\c2cccnc2)C(=O)/C(=C/c2cccnc2)C1 (configuration not stated) | 2.66 |

| SMILES | AC50 [µM] |
| --- | --- |
| Cn1cc([N+](=O)[O-])c(C(=O)Nc2cc(Oc3ccccc3)cc([N+](=O)[O-])c2)n1 | 12.4 |
| CC1CCC(C(C)C)C(OC(=O)Cn2c(-c3ccccc3)[n+](C)c3ccccc32)C1 (configuration not stated) | 2.37 |
| N/C(=N\OC(=O)c1ccccc1Cl)c1ccccn1 | 8.87 |
| O=C(Nc1ccc(Nc2ccncc2)cc1)c1ccc([N+](=O)[O-])cc1 | 7.22 |
| CCc1cc[n+](C2=C([O-])c3ccccc3C(=O)/C2=N\S(=O)(=O)c2cccs2)cc1 | 1.15 |
| O=C(Nc1ccccc1N1CCOCC1)c1ccc([N+](=O)[O-])o1 | 11.9 |
| Nc1nc2n[nH]nc2c(=O)[nH]1 | 0.875 |
| O=S(=O)(c1ccc(F)cc1)c1snnc1-c1ccccc1 | 15.1 |
| NC(=O)c1cc([N+](=O)[O-])ccc1NCc1ccc(N)cc1 | 1.41 |
| CCN(Cc1ccccc1)c1ccc(/C=N/N=C(N)N)cc1 | 6.37 |
| CCOc1c(Br)cc(CNC2CCCCCCC2)cc1OC | 20.5 |
| C1CCC(C(CC2CCCCN2)C2CCCCC2)CC1 (configuration not stated) | 18.8 |
| CCCCn1c(=N)n(CC(=O)c2ccc(Br)s2)c2ccccc21 | 7.45 |
| C=C1C(=O)C=C[C@]2(C)C[C@@H]3OC(=O)[C@](C)(O)[C@H]3C[C@@H]12 | 10.3 |
| CC1CCN(CC2C(=O)O[C@@H]3C[C@@]4(C)CCC[C@H](C)C4=C[C@H]23)CC(C)(C)C1 (some centres not stated) | 16.1 |
| O=C(CCl)Nc1cn(-c2ccccc2)nc1-c1ccccc1 | 14.5 |
| Cc1[nH]c2ccccc2c1C(=O)CCl | 6.78 |
| Cc1ccc2nc3cc([N+](=O)[O-])cc([N+](=O)[O-])c3cc2c1 | 8.46 |
| Cc1ccc2nc(C)cc(Nc3ccc([N+](=O)[O-])cc3)c2c1 | 5.88 |
| C=CCn1c(C)cc(C(=O)Cn2ncc(Cl)c(Cl)c2=O)c1C | 9.97 |
| COc1ccc(/C=C2\SC(=S)N(CCCC(=O)NNC(=O)c3ccccc3O)C2=O)cc1 | 1.38 |
| CC(=NNc1nc2ccccc2o1)c1cc2ccccc2cn1 | 0.175 |
| Cc1cc(C)nc(S/C=C/C(=O)c2ccccc2F)n1 | 5.38 |

| SMILES | AC50 [µM] |
| --- | --- |
| O=C1CCC2S/C(=C/Nc3ccc(C(F)(F)F)cc3)C(=O)N12 (configuration not stated) | 3.57 |
| Cc1cc(C(C)(C)C)cc(C)c1Cn1c2[n+](c3ccc(C(F)(F)F)cc31)CCCCC2 | 7.55 |
| CCCN(CC(=O)Nc1ccccc1C)C(=O)CCl | 4.04 |
| CCOc1ccc(-c2ccc(SC)nn2)cc1 | 5.17 |
| Cc1ccc2sc(N(CCCN(C)C)C(=O)c3ccc(S(=O)(=O)N(C)C4CCCCC4)cc3)nc2c1C | 18 |
| CCN1CCN(c2ccc(S(=O)(=O)N3CCOCC3)cc2NC(=O)/C=C/c2ccc([N+](=O)[O-])cc2)CC1 | 8.13 |
| CCN1c2ccccc2NC2C1C(C(C)=O)C(=O)N2c1ccc(Cl)cc1 (configuration not stated) | 12.7 |
| CCS(=O)(=O)c1ccc(N=Nc2ccc(O)c3ncccc23)c(OC)c1 | 9.23 |
| COc1ccc(Br)cc1C(C[N+](=O)[O-])c1c(N)n(C)c(=O)n(C)c1=O (configuration not stated) | 8.73 |
| N=c1n(CC(=O)c2ccc(Br)cc2)c2ccccc2n1Cc1ccccc1 | 6.41 |
| CCCCNC(=O)Nc1ccc(C2SCCS2)cc1 | 35.3 |
| O=C(CCl)Nc1cccc(Oc2ccccc2)c1 | 8.07 |
| O=C1c2cc(F)ccc2-n2c1nc1ccccc1c2=O | 1.05 |
| CN(C)c1ccc(NC(=S)c2ccccn2)cc1 | 2.84 |
| CC1=C/C(=N\NC(=S)Nc2cccnc2)CC(C)(C)C1 | 11 |
| FC(F)(F)c1cc(CCN2CCNC[C@@H]2Cc2ccccc2)cc(C(F)(F)F)c1 | 12.3 |
| Cc1cc(NC(=O)c2ccc([N+](=O)[O-])o2)ccc1NC(=O)c1ccco1 | 7.8 |
| O=C1NC(=O)N(Cc2ccccc2Cl)C(=O)/C1=C/c1cccs1 | 29.7 |
| C=CCC(Nc1ccccc1)C12C=CC(O1)C(C(=O)OC)=C2C(=O)OC (configuration not stated) | 11.7 |
| Cc1ccc(C2CC(C(F)(F)F)n3nc(C(=O)NCc4c(C)nn(C)c4C)c(Cl)c3N2)cc1 (configuration not stated) | 8.89 |
| CC(=O)c1c(C)oc2c1C(=O)c1ccccc1C2=O | 6.68 |
| CC1(C(=O)N/N=C/c2ccc([N+](=O)[O-])o2)CC1(Br)Br (configuration not stated) | 10.3 |
| COc1cc(C2C(C#N)=C(N)Oc3cc(N(C)C)ccc32)cc2c1OCO2 (configuration not stated) | 0.601 |

| SMILES | AC50 [µM] |
| --- | --- |
| CCN1CCN(c2ccc(Nc3ccnc4ccccc34)cc2)CC1 | 12.3 |
| COc1ccccc1NC(=O)c1cnc(SCC(=O)NCC2CCCO2)n(C)c1=O (configuration not stated) | 8.88 |
| O=[N+]([O-])c1ccc(S(=O)(=O)CC(CN2CCCCC2)N2CCCCC2)cc1 (configuration not stated) | 4.88 |
| O=C(c1ccc([N+](=O)[O-])s1)N1CCN(c2ccccn2)CC1 | 12.2 |
| O=C(Nc1ccc(F)cc1)c1nc(S(=O)(=O)Cc2ccccc2)ncc1Cl | 9.45 |
| Cn1nnnc1Sc1ncnc2scc(-c3cccc(F)c3)c12 | 5.98 |
| CC1(C)CC(=O)C=C(NC2=CC3OC(c4ccccc4)OCC3OC2=O)C1 (configuration not stated) | 7.71 |
| CN(C)CC1CC/C(=C\c2ccc(O)cc2)C1=O (configuration not stated) | 12.9 |
| N#Cc1cc2c(nc1SC1CC(=O)N(c3ccccc3)C1=O)CCC2 (configuration not stated) | 1.78 |
| Cc1ccc(NC(=O)c2cc(N3C(=O)C=CC3=O)ccc2N2CCOCC2)cc1 | 11.6 |
| CC(C)(c1ccccc1)c1ccc(OCC(O)CNC2CCN(Cc3ccccc3)CC2)cc1 (configuration not stated) | 7.94 |
| O=C(O)c1ccccc1C(=O)Nc1ccc(Oc2cccc3ccccc23)cc1 | 18.8 |
| O=C1NC(=S)NC(=O)C1=Cc1cccc2cc3ccccc3cc12 | 4.81 |
| COC(=O)C1=C(C)N(Cc2ccccc2)C(=NCCc2cccnc2)N[C@H]1c1ccc(Br)cc1 | 17.8 |
| Nc1ccc(Oc2cccc(Oc3ccc(N)cc3)c2)cc1 | 1.1 |
| COc1ccc(S(=O)(=O)N2CCCCC2)cc1NC(=O)c1ccc([N+](=O)[O-])o1 | 9.14 |
| CCOc1ccc(-n2c(O)c(/C=N/Nc3nc(C)cc(C)n3)c3ccccc3c2=O)cc1 | 3.48 |
| CC(=O)SC(C[N+](=O)[O-])c1cn(C(C)=O)c2ccccc12 (configuration not stated) | 3.54 |
| O=C(Cc1ccc2c(c1)OCO2)NN=Cc1ccc([N+](=O)[O-])o1 | 8.55 |
| CN(C)S(=O)(=O)c1cccc(NC(=O)CSc2nc3c(cc2C#N)C(=O)CC(C)(C)C3)c1 | 9.02 |
